# Laboratory results from US7785611B2, “Parenteral vaccine formulations and uses thereof” (ALK-Abello A/S, priority 2000, dated 2010).
# Tests used:
# [1] = current use as antacid, laxative, topical or cosmetic; cited from earlier work
# [2] = tested on: TT-specific antibodies of the IgG class; parameters: species or system BALB/Ca mice; conditions: mouse, in vivo
# Protocol: (§1) Tetanus toxoid (TT) containing 3.0 mg protein/ml, (obtained from Statens Serum Institut, DK-2300 Copenhagen S, Denmark).
# (§2) Prepared from Mg(OH)2 gel (Reheis, USA). • Magnesium carbonate hydroxide pentahydrate, (MgCO3)4Mg(OH)25H2O, 0.05 M Mg^2+. […] Preparation of the Vaccine Formulations: […]
# (§3) TT was dissolved or diluted to a concentration 10 times that of the concentration in the final vaccine formulation. The adjuvant was dissolved or diluted to a concentration five times that of the concentration in the final vaccine formulation, with regard to the cation. 1 volume TT solution was slowly mixed with 2 volumes adjuvant, and left stirring over night at 4° C. The following day 7 volumes Coca 0.0 buffer (0.25% sodium hydrogen carbonate and 0.5% sodium chloride) was slowly added. The adjuvant free vaccine was prepared as above, with the modification that the adjuvant was substituted with Coca 0.0 buffer. […]
# (§4) Blood samples were drawn from the retro orbital vein every 7 days, starting on day 0. Serum was separated from the blood sample, and stored at −20° C., until analysed.
# (§5) Serum samples were analysed for the presence of TT-specific immune response by means of a direct enzyme linked immunosorbent assay (ELISA), measuring TT-specific antibodies of the IgG class. […]
# (§6) Bound antibodies were detected by serial incubations of the plate with a biotinylated, polyclonal antiserum to mouse IgG (obtained from Jackson Laboratories, Bar Harbour, Me., USA) followed by a streptavidine-horseradish peroxidase conjugate (obtained from DAKO A/S, Glostrup, Denmark). The plates were developed for 20 minutes with 100 μl readymade TMB substrate (Kem-En-Tech, Denmark) per well, and the reaction as stopped with an equal volume of 1M H2SO4.
# (§7) The developed colour reaction was measured as absorption at 450 nm. […]
# (§8) The strength of the TT-specific antibody response in each serum sample was measured as an arbitrary titre, determined as the serum dilution giving an absorption signal equal to 50% of that obtained with a 3000 fold dilution of the TT-specific monoclonal antibody. […]
# [3] = tested on: TT-specific antibodies of the IgG class; parameters: species or system BALB/Ca mice; conditions: mouse, in vivo, sc
# Protocol: as §1, §2, §3, §4, §5, §6, §7, §8
# [4] = magnesium hydroxide alone; cited from earlier work
Compound,Dose (recommended maximum dose) [1],onset of specific immune response compared with Al(OH)3 formulation [2],potency at inducing TT-specific antibodies compared with vaccine formulation containing Al(OH)3 [3],adsorbent activity [4]
Magnesium carbonate hydroxide pentahydrate [magnesium carbonate pentahydrate],0.5 g per kg bodyweight,earlier onset,more potent,–
Titanium dioxide,1.0 g per kg bodyweight,earlier onset,more potent,–
"[Mg+2].[OH-].[OH-] [magnesium hydroxide, Magnesium hydroxide]",0.5 g per kg bodyweight,earlier onset,more potent,low
